Reference: patent US5627211A, “Cyclohexyl amine derivatives and their use as tachykinin antagonists” (Merck Sharp & Dohme Limited, priority 1992, dated 1997)
Where two headings read alike, the source gives them in different places.

Target: human NK1R (Homo sapiens, UniProt P25103)
Test: human NK1R assay: displacement of radiolabelled substance P binding
Method: The substance P antagonizing activity of the compounds described herein was evaluated using the human NK1R assay described in published European patent application no. 0 528 495. The method essentially involves determining the concentration of the test compound required to reduce by 50% the amount of radiolabelled substance P binding to human NK1R, thereby affording an IC50 value for the test compound.

[1] = radiolabelled substance P, assay as in EP 0 528 495, read-out: IC50 (concentration of the test compound required to reduce by 50% the amount of radiolabelled substance P binding to human NK1R)

Sequence of human NK1R (P25103 whole entry): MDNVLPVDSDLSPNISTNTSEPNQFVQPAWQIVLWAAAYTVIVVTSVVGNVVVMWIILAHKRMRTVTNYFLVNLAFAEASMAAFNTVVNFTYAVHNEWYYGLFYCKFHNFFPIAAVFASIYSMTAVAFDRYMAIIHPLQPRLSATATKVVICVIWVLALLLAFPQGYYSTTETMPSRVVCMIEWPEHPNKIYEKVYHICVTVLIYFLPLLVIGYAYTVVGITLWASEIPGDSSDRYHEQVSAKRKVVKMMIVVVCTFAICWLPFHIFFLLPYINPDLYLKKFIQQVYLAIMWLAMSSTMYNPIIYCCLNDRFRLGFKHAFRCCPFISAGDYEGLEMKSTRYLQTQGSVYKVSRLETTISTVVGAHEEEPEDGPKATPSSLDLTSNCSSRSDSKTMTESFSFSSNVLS

IC50 [1] [nM] | Compound | IC50 [nM]
350 | NC1(c2ccccc2)CCCCC1OCc1cc(C(F)(F)F)cc(C(F)(F)F)c1 (stereo not drawn) [Example 5, 1-(Bis-3,5-trifluoromethylbenzyoxy)-2-amino-2-phenylcyclohexane] | –
100 | NC(=O)CNC1(c2ccccc2)CCCCC1OCc1cc(C(F)(F)F)cc(C(F)(F)F)c1 (stereo not drawn) [Example 6, 1-(Bis-3,5-trifluoromethylbenzyoxy)-2-(carboxamido)methylamino-2-phenylcyclohexane] | –
– | Cc1cc(C)cc(COC2CCCCC2(N)c2ccccc2)c1 (stereo not drawn) [Example 1, 1-(3,5-Dimethylbenzyloxy)-2-amino-2-phenylcyclohexane] | 100
